Measurements: patent US20150258197A1, “EUTECTIC ISOMETHEPTENE MUCATE” (TONIX PHARMA HOLDINGS LIMITED, priority 2014, published 2015)

Key:
[1] = DSC/XRPD of binary mixtures of isometheptene mucate and mannitol (eutectic formation); format: physicochemical; settings: binary mixtures at different ratios
Procedure: Because mannitol is a common excipient in solid drug formulations, it was examined for compatibility with racemic isometheptene mucate and investigated using DSC and the interactions occurring were assessed. […] To confirm the formation of a eutectic and to characterize its physical properties, several binary mixtures at different ratios of racemic isometheptene mucate and excipient were prepared and analyzed by DSC and by XRPD. The eutectic formation improved the cohesion between the racemic isometheptene mucate and excipient particles and assured better physical linking between the two.
In order to confirm the eutectic formation and to characterize its physical properties, several binary mixtures at different ratios of racemic isometheptene mucate-excipient were prepared and analyzed by DSC and by X-ray powder diffraction (XRPD). […] For each DSC heating curve, the onset temperature and the enthalpy were evaluated both for the eutectic contribute and for the excess of component. The recorded values were plotted and a phase diagram between the two components was obtained with a characteristic profile of phase diagrams of eutectic mixtures. […]
Aliquots of racemic isometheptene mucate API and mannitol were weighed in the ratios described below and ground in an agate mortar, and the homogeneous mixtures subsequently analyzed. […]

mice [2] = assay: Tail-flick Test; format: in vivo; settings: mouse
Excerpt: (§1) Common mouse models for pain include the Formalin Test (Wheeler-Aceto, et al., Psychopharmacology, 104, 35-44, 1991), the Hot Plate Test (Eddy and Leimbach, J. Pharmacol. Exp. Ther., 107, 385-393, 1953), and the Tail-flick Test (D'Amour and Smith, J. Pharmacol. Exp. Ther., 1, 74-79, 1941). These methods detect analgesic activity of compositions of interest. In the Formalin Test, mice are given an intraplantar injection of 5% formalin into one posterior hindpaw to induce paw licking. Test compositions are given to the mice before treatment with formalin and the mice are evaluated and compared to a control group. In the Hot Plate Test, mice are placed onto a hot metal plate maintained at 54° C. and the latency to the first foot-lick is measured. As with the Formalin test, compositions of interest are given to the mice before the test and the mice are evaluated and compared to a control group. In the Tail-flick Test, a mouse's tail is heated by means of a thermal light source, and the latency before the animal withdraws its tail is measured. Test compositions are administered before the test, and compared with a vehicle control group. The analgesic activity of the compositions described herein can be identified using the mouse formalin, hot plate, and tail-flick tests.
A method for detecting analgesic activity followed that described by D'Amour and Smith (J. Pharmacol. Exp. Ther., 1, 74-79, 1941). The mouse's tail was heated by means of a thermal light source (20 volts). The latency before the animal withdraws its tail was measured (maximum: 15 seconds).
Ten mice were studied per group. The test was performed partially blind.
The test substances selected from (R)-isometheptene mucate, and (S)-isometheptene mucate were evaluated at three doses ([…]), administered p.o. 15 minutes before the test, and compared with a vehicle control group. […]
Data with the test substance were analyzed by comparing treated groups with vehicle control using ANOVA followed by post-hoc Dunnett's tests. Data with the reference substance were analyzed using unpaired Student's t tests.

mice [3] = assay: Hot Plate Test; format: in vivo; settings: mouse, hot plate 54° C., 10, 30 and 100 mg/kg p.o. 15 minutes before the test
Excerpt: as §1, with “Test compositions are administered before the test, and compared with a vehicle control group. The analgesic activity of the compositions described herein can be identified using the mouse formalin, hot plate, and tail-flick tests.” left out
Mice were placed onto a hot metal plate maintained at 54° C. surrounded by a Plexiglas cylinder (height: 13 cm; diameter: 19 cm). The latency to the first foot-lick was measured (maximum: 30 seconds). […]
Data with the test substance were analyzed by comparing treated groups with vehicle control using ANOVA followed by post-hoc Dunnett's tests. […]

For `CN[C@H](C)CCC=C(C)C` [(R)-isometheptene mucate], the “Interaction with mannitol (eutectic vs adduct)” value [1] was “only a physical eutectic formation”, the “Tail-flick activity relative to morphine” value (mice [2]; 100 mg/kg p.o. versus morphine 32 mg/kg) was “activity similar to that of morphine” and the “Tail flick latency compared to vehicle” value (mice [2]; thermal light source, three doses (10, 30, 100) p.o. 15 minutes before the test) was “longer tail flick latency times”. The “Foot-licking latency compared to vehicle” value (mice [3]) was “longer foot-licking latency times”.
